Experimental data as given in patent publication US11873287B2, “Piperidine-2,6-dione derivatives and ulcerative colitis treating” (TIANJIN HEMAY PHARMACEUTICAL SCI-TECH CO., LTD, priority 2016, dated 2024).
Values joined by “and” are separate entries in the source; they are usually repeats but may differ in a detail not shown here. Identical values can stand only once.

Legend:
ICR mice = assay: Acute toxicity experiment of single oral administration in mice; format: in vivo
Procedure: The mice were fasted one day before the experiment. On the day of the experiment, 6 mice (ICR mice, body weight of 19-21 g, three females and three males) were selected in each experiment group. First of all, one female and one male were selected to orally give 1000 mg/Kg, and observed for 5-10 minutes. If there were no obvious side effects, the remaining 4 animals were orally given the same dose, and observed for 10-15 minutes. If no animal died, the animals were placed in a box to balancedly feed for 7 days. The state was observed and the body weight was recorded daily.
Observation Indexes within 0-15 Minutes After Administration
Activity: restlessness, hyperactivity
Nervous system response: tremor, spasm, convulsion, ataxia, posture abnormality, etc.
Autonomic nerve: exophthalmos, salivation, tears, urination (hematuria), diarrhea, piloerection, breathing, etc.
Observation Indexes Over 7 Days
State of Animal: lethargy, hyperactivity, excitement, hair loss, diarrhea, abnormal behavior, death, etc.

[1] = system: DSS-Induced inflammatory Bowel Disease Models in Mice; assay: DSS-induced inflammatory bowel disease model in mice (Biological Example 4, 1.3% DSS); format: in vivo, C57BL/6 mice; details: 30 mg/Kg i.g. Q.D
Procedure: 40 healthy female C57BL/6 mice having weight of 16-19 g were randomly divided into 4 groups in accordance with weight. There were 10 mice in each group (see Table 6 below). The first day of the experiment was recorded as Day 0. The administration regimen and induction regimen were detailed in Table 6. The change in weight of experimental animals was recorded every day. […] Samples of animal colonic tissues were obtained to measure the length. One-way ANOVA analysis of mice weights was performed by SPSS22. Statistical analyses between groups were performed. Mann-Whitney U non-parametric test was performed on the length of colon.
The experimental method used in the present biological example is identical to those in Biological Example 3.
Calculation Formula of Inhibitory Rate of Colonic Reduction: (Length of Colon in Administration Group−Length of Colon in Model Group)/(Length of Colon in Blank Group−Length of Colon in Model Group)

[2] = Day 1, 1000 mg/Kg single oral dose
[3] = Day 2, 1000 mg/Kg single oral dose
[4] = Day 3, 1000 mg/Kg single oral dose
[5] = Day 4, 1000 mg/Kg single oral dose
[6] = Day 5, 1000 mg/Kg single oral dose
[7] = Day 6, 1000 mg/Kg single oral dose
[8] = Day 7, 1000 mg/Kg single oral dose
[9] = Day 1, 1000 mg/Kg single oral dose, 1000 mg/kg
[10] = Day 2, 1000 mg/Kg single oral dose, 1000 mg/kg
[11] = Day 3, 1000 mg/Kg single oral dose, 1000 mg/kg
[12] = Day 4, 1000 mg/Kg single oral dose, 1000 mg/kg
[13] = Day 5, 1000 mg/Kg single oral dose, 1000 mg/kg
[14] = Day 6, 1000 mg/Kg single oral dose, 1000 mg/kg
[15] = Day 7, 1000 mg/Kg single oral dose, 1000 mg/kg
[16] = Female, 1000 mg/Kg single oral dose
[17] = Male, 1000 mg/Kg single oral dose

| SMILES | Daily Body Weight of Tested Female Mice (Mean ± SD) (ICR mice; [2]) [g] | Daily Body Weight of Tested Male Mice (Mean ± SD) (ICR mice; [2]) [g] | Daily Body Weight of Tested Female Mice (Mean ± SD) (ICR mice; [3]) [g] | Daily Body Weight of Tested Male Mice (Mean ± SD) (ICR mice; [3]) [g] | Daily Body Weight of Tested Female Mice (Mean ± SD) (ICR mice; [4]) [g] | Daily Body Weight of Tested Male Mice (Mean ± SD) (ICR mice; [4]) [g] | Daily Body Weight of Tested Female Mice (Mean ± SD) (ICR mice; [5]) [g] | Daily Body Weight of Tested Male Mice (Mean ± SD) (ICR mice; [5]) [g] | Daily Body Weight of Tested Female Mice (Mean ± SD) (ICR mice; [6]) [g] | Daily Body Weight of Tested Male Mice (Mean ± SD) (ICR mice; [6]) [g] | Daily Body Weight of Tested Female Mice (Mean ± SD) (ICR mice; [7]) [g] | Daily Body Weight of Tested Male Mice (Mean ± SD) (ICR mice; [7]) [g] | Daily Body Weight of Tested Female Mice (Mean ± SD) (ICR mice; [8]) [g] | Daily Body Weight of Tested Male Mice (Mean ± SD) (ICR mice; [8]) [g] | Summary of toxic response of tested animals in 7 Days (ICR mice; [16]) | Summary of toxic response of tested animals in 7 Days (ICR mice; [17]) | further results |
| --- | --- | --- | --- | --- | --- | --- | --- | --- | --- | --- | --- | --- | --- | --- | --- | --- | --- |
| COCCN1C(=O)CCC(N2C(=O)c3cccc(NC(C)=O)c3C2=O)C1=O (centres unmarked) [Example 1, 4-acetylamino-2-(1-(2-methoxyethyl)-2,6-dioxopiperidin-3-yl)isoindolin-1,3-dione] | 18.5 ± 0.1 | 20.1 ± 1.4 | 22.8 ± 0.3 | 23.8 ± 1.4 | 23.2 ± 0.7 | 24.9 ± 1.0 | 24.0 ± 0.2 | 26.3 ± 1.2 | 25.3 ± 1.6 | 27.7 ± 1.3 | 25.7 ± 1.6 | 29.2 ± 1.4 | 27.1 ± 1.1 | 29.4 ± 1.4 |  |  |  |
| COCCN1C(=O)CCC(N2C(=O)c3cccc(N(C)C)c3C2=O)C1=O (centres unmarked) [Example 3, 4-dimethylamino-2-(1-(2-methoxyethyl)-2,6-dioxopiperidin-3-yl)isoindolin-1,3-dione] |  |  |  |  |  |  |  |  |  |  |  |  |  |  | Abnormality was not observed in 7 days of the test | Abnormality was not observed in 7 days of the test | Daily Body Weight of Tested Female Mice (Mean ± SD) (ICR mice; [9]): 18.3 ± 0.4 g and 18.8 ± 0.4 g; Daily Body Weight of Tested Male Mice (Mean ± SD) (ICR mice; [9]): 18.8 ± 0.7 g and 18.0 ± 0.2 g; Daily Body Weight of Tested Female Mice (Mean ± SD) (ICR mice; [10]): 21.7 ± 0.2 g and 22.1 ± 1.2 g; Daily Body Weight of Tested Male Mice (Mean ± SD) (ICR mice; [10]): 23.3 ± 0.1 g and 22.9 ± 0.3 g; Daily Body Weight of Tested Female Mice (Mean ± SD) (ICR mice; [11]): 22.3 ± 0.2 g and 22.7 ± 0.8 g; Daily Body Weight of Tested Male Mice (Mean ± SD) (ICR mice; [11]): 24.3 ± 0.1 g and 24.3 ± 0.9 g; Daily Body Weight of Tested Female Mice (Mean ± SD) (ICR mice; [12]): 22.6 ± 0.8 g and 23.0 ± 1.4 g; Daily Body Weight of Tested Male Mice (Mean ± SD) (ICR mice; [12]): 25.6 ± 0.7 g and 25.2 ± 1.1 g; Daily Body Weight of Tested Female Mice (Mean ± SD) (ICR mice; [13]): 23.0 ± 1.4 g and 23.7 ± 1.9 g; Daily Body Weight of Tested Male Mice (Mean ± SD) (ICR mice; [13]): 26.9 ± 0.8 g and 27.0 ± 1.3 g; Daily Body Weight of Tested Female Mice (Mean ± SD) (ICR mice; [14]): 22.6 ± 1.3 g and 24.1 ± 1.2 g; Daily Body Weight of Tested Male Mice (Mean ± SD) (ICR mice; [14]): 27.9 ± 0.9 g and 28.2 ± 1.9 g; Daily Body Weight of Tested Female Mice (Mean ± SD) (ICR mice; [15]): 22.7 ± 0.4 g and 24.4 ± 1.8 g; Daily Body Weight of Tested Male Mice (Mean ± SD) (ICR mice; [15]): 28.6 ± 0.4 g and 28.5 ± 2.7 g |
| COCCN1C(=O)CCC(N2C(=O)c3ccc(F)c(N)c3C2=O)C1=O (centres unmarked) [Example 9, 4-amino-S-fluoro-2-(1-(2-methoxyethyl)-2,6-dioxopiperidin-3-yl)isoindolin-1,3-dione] |  |  |  |  |  |  |  |  |  |  |  |  |  |  |  |  | Summary of toxic response of tested animals in 7 Days (ICR mice; mouse, in vivo, po, 1000 mg/kg): Abnormality was not observed in 7 days of the test |
| COCCN1C(=O)CCC(N2C(=O)c3c(N)ccc(O)c3C2=O)C1=O (centres unmarked) [Example 10, 4-amino-7-hydroxy-2-(1-(2-methoxyethyl)-2,6-dioxopiperidin-3-yl)isoindolin-1,3-dione] | 19.2 ± 0.5 | 19.4 ± 0.3 | 21.9 ± 0.4 | 24.4 ± 0.6 | 22.4 ± 0.2 | 25.5 ± 0.9 | 22.4 ± 0.2 | 25.5 ± 0.9 | 22.9 ± 0.6 | 26.8 ± 0.9 | 24.1 ± 1.5 | 29.2 ± 0.7 | 24.2 ± 1.8 | 30.3 ± 0.7 | Decrease of activity was observed in all the animals within 30 | Decrease of activity was observed in all the animals within 30 |  |
| CSCCN1C(=O)CCC(N2C(=O)c3cccc(N)c3C2=O)C1=O (centres unmarked) [Example 11, 4-amino-2-(1-(2-methylthioethyl)-2,6-dioxopiperidin-3-yl)isoindolin-1,3-dione] | 18.1 ± 0.2 | 19.5 ± 0.6 | 21.7 ± 0.2 | 23.7 ± 0.8 | 22.4 ± 0.1 | 25.4 ± 0.4 | 22.4 ± 0.1 | 25.4 ± 0.4 | 23.5 ± 0.4 | 27.0 ± 0.5 | 23.2 ± 0.8 | 29.0 ± 0.7 | 23.2 ± 0.9 | 29.8 ± 1.0 | Decrease of activity was observed in one animal after | Abnormality was not observed in 7 days of the test |  |
| COCCCN1C(=O)CCC(N2C(=O)c3cccc(NC(C)=O)c3C2=O)C1=O (centres unmarked) [Example 16, 4-acetylamino-2-(1-(3-methoxypropyl)-2,6-dioxopiperidin-3-yl)isoindolin-1,3-dione] |  |  |  |  |  |  |  |  |  |  |  |  |  |  |  |  | Average Length of Colon (Mean ± SD) ([1]; 1.3% DSS days 0-5): 7.0 ± 0.4 cm; Inhibitory Rate of Colonic Reduction ([1]; 1.3% DSS days 0-5): 73.3%; Weights of Experimental Mice (Mean ± SD) ([1]; Day 0): 19.8 ± 0.6 g; Weights of Experimental Mice (Mean ± SD) ([1]; Day 1): 19.9 ± 0.4 g; Weights of Experimental Mice (Mean ± SD) ([1]; Day 2): 19.7 ± 0.4 g; Weights of Experimental Mice (Mean ± SD) ([1]; Day 3): 19.9 ± 0.6 g; Weights of Experimental Mice (Mean ± SD) ([1]; Day 4): 19.7 ± 0.5 g; Weights of Experimental Mice (Mean ± SD) ([1]; Day 5): 19.6 ± 0.5 g; Weights of Experimental Mice (Mean ± SD) ([1]; Day 6): 19.3 ± 0.7 g; Weights of Experimental Mice (Mean ± SD) ([1]; Day 7): 19.0 ± 1.0 g; Weights of Experimental Mice (Mean ± SD) ([1]; Day 8): 18.9 ± 1.2 g; Weights of Experimental Mice (Mean ± SD) ([1]; Day 9): 18.9 ± 1.1 g |
| COCCCN1C(=O)CCC(N2C(=O)c3ccc(N)cc3C2=O)C1=O (centres unmarked) [Example 18, 5-amino-2-(1-(3-methoxypropyl)-2,6-dioxopiperidin-3-yl)isoindolin-1,3-dione] | 18.4 ± 0.7 | 18.2 ± 0.4 | 22.5 ± 0.8 | 23.0 ± 0.7 | 23.8 ± 1.1 | 24.1 ± 0.4 | 24.8 ± 1.5 | 25.6 ± 0.8 | 24.8 ± 0.6 | 28.1 ± 1.1 | 25.4 ± 0.7 | 29.0 ± 1.4 | 25.2 ± 1.1 | 29.0 ± 1.0 |  |  |  |
